# Data published in US7423121B2, “Sodium channel rNav1.5a” (Neurosearch A/S, priority 2000, dated 2008).
# Experiments:
# rNav1.5a = molecular target: T1, rNav1.5a (Rattus norvegicus, UniProt P15389); assay: Whole-cell recording of peak sodium current, inhibition by Lamotrigine, sodium channel expressed endogenously in HiB5 cells (rNav1.5a); format: cell-based
# T1 construct: the Sodium Channel Expressed Endogenously in HiB5 Cells (rNav1.5a); endogenous in cells; host or cells: HiB5 (rat hippocampal stem cell line)
# T1 sequence (P15389 1-1966 isoform P15389-2): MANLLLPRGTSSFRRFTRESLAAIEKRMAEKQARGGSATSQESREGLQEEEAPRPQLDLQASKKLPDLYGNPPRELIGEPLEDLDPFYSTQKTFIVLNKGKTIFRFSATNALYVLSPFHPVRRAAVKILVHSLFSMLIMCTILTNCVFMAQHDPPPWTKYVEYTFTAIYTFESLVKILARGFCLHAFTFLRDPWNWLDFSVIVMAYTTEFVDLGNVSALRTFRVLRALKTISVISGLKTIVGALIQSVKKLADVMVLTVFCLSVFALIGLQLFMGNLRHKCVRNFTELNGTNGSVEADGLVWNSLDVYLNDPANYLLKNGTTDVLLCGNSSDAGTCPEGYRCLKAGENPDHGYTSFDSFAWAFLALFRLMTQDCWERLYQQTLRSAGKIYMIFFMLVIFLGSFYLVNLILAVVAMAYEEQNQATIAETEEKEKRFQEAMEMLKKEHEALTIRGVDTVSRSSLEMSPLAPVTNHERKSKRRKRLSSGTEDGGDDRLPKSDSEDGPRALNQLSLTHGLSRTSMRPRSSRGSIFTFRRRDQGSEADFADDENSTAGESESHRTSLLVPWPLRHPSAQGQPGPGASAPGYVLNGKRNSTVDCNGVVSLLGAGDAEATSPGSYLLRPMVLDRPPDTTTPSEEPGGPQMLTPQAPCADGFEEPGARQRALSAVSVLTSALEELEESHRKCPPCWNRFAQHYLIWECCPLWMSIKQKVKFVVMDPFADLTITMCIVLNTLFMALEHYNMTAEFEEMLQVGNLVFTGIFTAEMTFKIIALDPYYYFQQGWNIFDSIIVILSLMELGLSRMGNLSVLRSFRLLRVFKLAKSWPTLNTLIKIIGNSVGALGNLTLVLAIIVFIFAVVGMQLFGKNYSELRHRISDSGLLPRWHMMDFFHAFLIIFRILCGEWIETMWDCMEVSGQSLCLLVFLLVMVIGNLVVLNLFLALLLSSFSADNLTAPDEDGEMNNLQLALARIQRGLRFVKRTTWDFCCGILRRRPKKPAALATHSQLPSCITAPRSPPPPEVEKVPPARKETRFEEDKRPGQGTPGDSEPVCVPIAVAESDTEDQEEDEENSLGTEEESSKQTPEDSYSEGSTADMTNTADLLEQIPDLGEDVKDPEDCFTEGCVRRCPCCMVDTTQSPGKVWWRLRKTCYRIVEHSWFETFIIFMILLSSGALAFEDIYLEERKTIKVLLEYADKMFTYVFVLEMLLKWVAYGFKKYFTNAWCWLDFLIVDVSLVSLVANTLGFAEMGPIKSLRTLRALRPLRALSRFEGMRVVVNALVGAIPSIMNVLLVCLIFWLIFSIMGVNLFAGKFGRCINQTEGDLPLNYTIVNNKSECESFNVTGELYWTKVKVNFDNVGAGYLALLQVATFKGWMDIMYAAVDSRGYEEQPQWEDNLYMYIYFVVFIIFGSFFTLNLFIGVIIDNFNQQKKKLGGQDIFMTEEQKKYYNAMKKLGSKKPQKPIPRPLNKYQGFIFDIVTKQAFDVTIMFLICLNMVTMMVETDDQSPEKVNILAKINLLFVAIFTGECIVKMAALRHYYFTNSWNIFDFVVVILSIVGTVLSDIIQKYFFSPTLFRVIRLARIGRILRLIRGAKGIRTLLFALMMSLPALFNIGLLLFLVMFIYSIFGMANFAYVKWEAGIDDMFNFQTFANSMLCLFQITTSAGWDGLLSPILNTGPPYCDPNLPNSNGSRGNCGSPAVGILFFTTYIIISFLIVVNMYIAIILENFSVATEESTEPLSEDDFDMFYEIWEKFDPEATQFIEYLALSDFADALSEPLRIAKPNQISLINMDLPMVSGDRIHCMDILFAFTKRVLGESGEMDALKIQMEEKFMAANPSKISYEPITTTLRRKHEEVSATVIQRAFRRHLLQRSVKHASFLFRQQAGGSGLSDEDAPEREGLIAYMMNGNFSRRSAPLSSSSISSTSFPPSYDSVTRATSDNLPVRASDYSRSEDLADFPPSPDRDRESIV
# Procedure: (§1) Comparison of the Inhibitory Effect of Lamotrigine on the Classical Brain Type rNav1.2a and the Sodium Channel Expressed Endogenously in HiB5 Cells (rNav1.5a)
# (§2) Experiments were performed as whole-cell recordings in physiological saline with stimulation of the sodium channel every 5 second by stepping from a holding potential (e.g. −90 mV) to −10 mV and monitoration of the peak current as a function of the concentration of Lamotrigine added to the recording chamber.
# rNav1.2a = rNav1.2a (Rattus norvegicus, UniProt P04775); assay: Whole-cell recording of peak sodium current, inhibition by Lamotrigine, classical brain type rNav1.2a; format: cell-based; conditions: physiological saline, stimulation every 5 second, step from holding potential (e.g. −90 mV) to −10 mV
# Procedure: as §1, §2
structure (smiles),measurement,setting,value
Nc1nnc(-c2cccc(Cl)c2Cl)c(N)n1 [Lamotrigine],IC50,"rNav1.5a; HiB5 cells, whole-cell recording, physiological saline, stimulation every 5 second, step from holding potential (e.g. −90 mV) to −10 mV",20 µM
same,Potency on rNav1.5a relative to classical brain subtype BIIA,"rNav1.5a; comparison with BIIA (rNav1.2a), see Example 2",more potently
same,IC50,rNav1.2a,500 µM
